Patent US10836745B2, “Cocrystal, production method thereof, and medicament containing cocrystal” (Takeda Pharmaceutical Company Limited, priority 2015, dated 2020)
Values after ≈ are worked out from the molar mass of the structure shown. Like-named read-outs stand apart in the source and are kept apart here.

What was measured:
[1] = Measurement of dissolution rate (intrinsic dissolution test); assay type: physicochemical; settings: 7 mm disc, 200 rpm, second fluid containing cholic acid, 37° C.
Experimental: According to the method described in “2.6. Intrinsic dissolution test” on page 231 of Tsutsumi S., Int. J. Pharm., 421 (2011) 230-236, the dissolution rate of the crystals and cocrystals of compound (A) was measured. To be specific, the crystals or cocrystals of compound (A) (20 mg) was pressurized by a hand press tableting machine at 20 MPa for 10 min to give a 7 mm diameter disc. The prepared disc was adhered to the inside of a rotating shaft of the United States Pharmacopeia dissolution test 1 (basket), and inserted, while rotating at 200 rpm, in the second fluid (250 mL) of the Japanese Pharmacopoeia disintegration test containing cholic acid heated to 37° C. The second fluid containing the crystals or cocrystals was collected by 0.5 mL at 1 min intervals, and analyzed by HPLC. From a chromatogram comparison with the standard solution (0.05 mg/mL), the concentration of the crystals or the cocrystals was calculated, and the dissolution rate thereof was calculated.

[2] = Measurement of solubility (shake-flask method); assay type: physicochemical; settings: thermodynamic from solid, 37° C., shaken 2 hr
Experimental: According to the method described in “Thermodynamic Solubility Measurement by the Shake-Flask Method” on page 1229 of Nakashima S., Chem. Pharm. Bull., 61(12) 1228-1238 (2013), the solubility of the crystals and cocrystals of compound (A) was measured. To be specific, the first fluid (JP1), the second fluid (JP2) and the second fluid containing 20 mM sodium glycochenodeoxycholate (JP2/GCDC) of the Japanese Pharmacopoeia disintegration test were added at 400 μL each to the crystals or cocrystals (0.4 mg) of compound (A), and the mixture was heated to 37° C. under air atmosphere, and shaken by a vortex mixer for 2 hr at 500 rpm. After shaking, the mixture was passed through a 0.45 μm PVDF filter, and the filtrate was analyzed by HPLC. From a chromatogram comparison with the standard solution (0.1 mg/mL), the solubility of the crystals of the single compound and the cocrystals was calculated.

Experimental for physchem: The base pKa of the compound (A) and the acid pKa of the gentisic acid were measured using a Sirius T3 titrator manufactured by Sirius. The base pKa means an acid dissociation constant from the protonated state, and the acid pKa means the acid dissociation constant of the acid itself.

Row | dissolution rate [1] [μg/mm^2/min] | solubility at 2 h ([2]; pH 1.2, simulated gastric fluid, first fluid (JP1) of Japanese Pharmacopoeia disintegration test, read-out: solubility JP1) [µg/mL] | solubility at 2 h ([2]; pH 6.8, aqueous buffer, second fluid (JP2) of Japanese Pharmacopoeia disintegration test, read-out: solubility JP2) [µg/mL] | solubility at 2 h ([2]; pH 6.8, fassgf or other biorelevant, second fluid containing 20 mM sodium glycochenodeoxycholate, read-out: solubility JP2/GCDC) [µg/mL] | pKa (physchem) | SMILES
1 | 0.2 | 1.5 (≈ 4.27 µM) | 1.5 (≈ 4.27 µM) | 35.6 (≈ 101 µM) | – | C=CC(=O)N1CC[C@H](Oc2nc(-c3n[nH]c(=O)[nH]3)cc3ccccc23)C1 [compound (A), (S)-3-(1-((1-acryloylpyrrolidin-3-yl)oxy)isoquinolin-3-yl)-1H-1,2,4-triazol-5(4H)-one]
2 | – | – | – | – | 3.23 | O=C(O)c1cc(O)ccc1O [gentisic acid]
